Key:
[1] = test system: bone marrow derived macrophages (BMDMs); assay: macrophage M2-like morphology (elongation); type: cell-based, mouse; details: WT BMDMs, exogenous lactate added
Source text: FIGS. 9A-9D. Tumor-derived factors activate M2-like macrophages via Gpr132. (FIG. 9A) The pH values of conditioned media (CM) from cancer cells or macrophages (n=5-8); *p<0.05, ****p<0.001 compared with RAW 264.7 macrophage CM. (FIG. 9B) Western blot for CD206 and Gpr132 in RAW 264.7 macrophages after treatment with indicated cancer cell CM for 24 hrs. Actin was used as a loading control. The CD206/actin or Gpr132/actin ratio was quantified and shown as fold changes compared to control (n=3); *p<0.05, ***p<0.005 compared with control. (FIG. 9C) Flow cytometry analysis of Gpr132 and CD206 in BMDMs with or without EO771 CM treatment. The experiments were repeated twice and the representative results are shown. (FIG. 9D) Immunofluorescence staining for CD11b in WT and Gpr132-KO BMDMs after differentiation in the absence or presence of 30% EO771 CM or 4T1.2 CM for 7 days. Elongated macrophage morphology indicates a M2-like phenotype. Nuclei were stained with DAPI. Scale bar, 25 μm. WT, wild-type; Gpr132-KO, Gpr132 knockout.
FIGS. 10A-10F. […] LC-MS was used to quantify lactate in the eluent of Gpr132 co-IP. (Left) Representative LC-MS chromatograms; (Right) Quantification of relative lactate binding (n=3). ****p<0.001 compared with WT. […] CD206/actin ratio was quantified and shown as fold changes compared to control (n=3-4); *p<0.05 compared with WT control. […]

[2] = test system: macrophages; assay: M2 marker expression in macrophages (Western blot, RT-qPCR, flow cytometry); type: cell-based, mouse
Method: After blocking with 10% BSA for 10 min, cells were incubated with anti-CD206 (Rabbit polyclonal, Abcam) or anti-Gpr132 (Rabbit polyclonal, Sigma) antibodies (1:100) for 30 min at 4° C., washed with cold PBS, and then incubated with FITC-conjugated secondary antibodies (1:100) for 30 min at 4° C. After washing twice using cold PBS, cells were analyzed by flow cytometer (Becton Dickinson). RNA was isolated from cells or mouse tissues using Trizol (Invitrogen) following the manufacturer's instructions. RNA (200-500 ng) was first treated with RNase-free DNase I using the DNA-free kit (Ambion) to remove all genomic DNA, and then reverse-transcribed into cDNA using an ABI High Capacity cDNA RT Kit (Invitrogen). The cDNA was analyzed using real-time quantitative PCR (SYBR Green, Invitrogen) with an Applied Biosystems 7900 Sequence Detection System. Each reaction was performed in triplicate in a 384-well format. The expression of each gene was normalized by that of mouse ribosomal protein L19. Samples of 20 μg protein were applied to SDS polyacrylamide gels. After protein transfer, membranes were incubated with antibodies for […] (rabbit polyclonal, Santa Cruz Biotechnology), CD206, Gpr132, or β-actin (mouse monoclonal, Sigma) (1:1000) overnight at 4° C. Membranes were washed, and then incubated with HRP-conjugated secondary antibodies (1:1000) for 1 hr at room temperature before signal detection by chemiluminescence (Pierce). Densitometric quantification was performed by Image-Pro Plus 6.0 software (Media Cybernetics). PathScan Akt Signaling Antibody Array (Cell Signaling) was incubated with macrophage proteins and analyzed following kit instructions.

SMILES: CC(O)C(=O)O (stereo not drawn) [lactate]
- rescue of M2-like morphology by addition to CM of oxamic acid-treated cells [1]: restored
- expression of M2 markers (CD206, GM-CSF, CCL17) in WT macrophages ([2]; exogenous lactate 5 mM 24 hrs (Western) or 25 mM 6 hrs (RT-qPCR), WT): increased
- effects on M2 markers in Gpr132-KO macrophages ([2]; exogenous lactate, Gpr132-KO): absent or largely attenuated

Source: patent US20210095293A1, “METHODS OF TREATING CANCERS WITH GPR132 INHIBITORS” (The Board of Regents of the University of Texas System, priority 2016, published 2021)
